Measured values: US10906910B2, “Substituted bicyclic pyrimidine compounds with tubulin and multiple receptor inhibition” (Duquesne University of the Holy Spirit, priority 2014, dated 2021)

Assays:
A431 cells = experiment: A431 cytotoxicity; format: cell-based; settings: Homo sapiens, A-431
[1] = tested on: 4T1-Luc2GFP triple negative mouse breast cancer cells; format: in vivo; settings: mouse, in vivo
Method: BALB/c mice were implanted with 7.5 k 4T1-Luc2GFP triple negative mouse breast cancer cells orthotopically into mammary fat pad 4. 7 days after implantation, tumors are visible in over 90% of animals. At day 8 and continuing twice weekly until the experiment end, the MTD of compound 4.HCl (i.e. the hydrochloride salt of compound 4 shown in FIG. 1), determined to be 40 mg/kg, was given IP to tumor-bearing mice; […]; Both drugs were in solvent (5% solutol-15, 5% PharmaSolve in normal saline) and a solvent control group was included in addition to sham injected (untreated) group. Primary tumor volume and animal weights was assessed by calipers throughout the experiment.
On day 40, all animals were injected IV with fluorescently labeled dextran as a marker of vasculature. Tumors were excised and weighed; lungs were excised and evaluated for metastases. […]; large micro metastases (>10 cells with no vasculature) and macrometastases (>10 cells with apparent vasculature) were counted. […]

COc1cccc2c1C(=O)c1c(O)c3c(c(O)c1C2=O)C[C@@](O)(C(=O)CO)C[C@@H]3O[C@H]1C[C@H](N)[C@H](O)[C@H](C)O1 [doxorubicin, reference compound]
IC50 (A431 cells): 1.35 nM
animal weight [1]: began to result in weight loss in a few animals
